Results published in patent US20250026778A1 (TIUMBIO CO., LTD., priority 2021, published 2025).

Each molecule was assayed against T1, his-galectin-3 (Homo sapiens, UniProt P17931) (assay: TR-FRET assay (in vitro galectin-3 binding inhibitory activity test)). Details: Table 2; compound at 20 μM; 60 nM his-galectin-3, 15 nM biotin-ASF; read-out: % Inhibitory activity (at 20 μM).
T1 construct: purchased Abcam
Method in brief: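 Compound is premixed with his-galectin-3 (60 nM final), then biotin-ASF (15 nM), Tb anti-His antibody (2 nM) and streptavidin-d2 (20 nM) are added. After at least 3.5 hours at RT in HEPES/NaCl buffer with Tween 20 and BSA, TR-FRET is read at 615/665 nm. DMSO serves as the uninhibited control, ASF omission as background.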

T1 sequence (P17931 whole entry): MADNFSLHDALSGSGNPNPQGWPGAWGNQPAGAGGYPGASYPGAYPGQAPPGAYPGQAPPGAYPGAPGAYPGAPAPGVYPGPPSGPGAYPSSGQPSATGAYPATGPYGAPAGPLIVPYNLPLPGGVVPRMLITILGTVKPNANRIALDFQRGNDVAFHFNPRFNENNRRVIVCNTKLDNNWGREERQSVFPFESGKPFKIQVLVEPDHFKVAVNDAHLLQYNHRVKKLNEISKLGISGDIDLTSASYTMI

SMILES	inhibition at 20 µM [%]
O=C(N[C@@H]1CCO[C@]12O[C@H](CO)[C@H](O)[C@H](n1cc(-c3cc(F)c(F)c(F)c3)nn1)[C@H]2O)c1ccnc2ccccc12 [Compound A207, N-((4R,5S,7R,8R,9S,10R)-8,10-dihydroxy-7-(hydroxymethyl)-9-(4-(3,4,5-trifluorophenyl)-1H-1,2,3-triazol-1-yl)-1,6-dioxaspiro[4.5]decan-4-yl)quinoline-4-carboxamide]	> 75
O=C(N[C@@H]1CCO[C@]12O[C@H](CO)[C@H](O)[C@H](n1cc(-c3cc(F)c(F)c(F)c3)nn1)[C@H]2O)c1cccc2ncc(Br)cc12 [Compound A208, 3-bromo-N-((4R,5S,7R,8R,9S,10R)-8,10-dihydroxy-7-(hydroxymethyl)-9-(4-(3,4,5-trifluorophenyl)-1H-1,2,3-triazol-1-yl)-1,6-dioxaspiro[4.5]decan-4-yl)quinoline-5-carboxamide]	> 75
O=C(N[C@@H]1CCO[C@]12O[C@H](CO)[C@H](O)[C@H](n1cc(-c3cc(F)c(F)c(F)c3)nn1)[C@H]2O)c1ccnc2ccc(Br)cc12 [Compound A209, 6-bromo-N-((4R,5S,7R,8R,9S,10R)-8,10-dihydroxy-7-(hydroxymethyl)-9-(4-(3,4,5-trifluorophenyl)-1H-1,2,3-triazol-1-yl)-1,6-dioxaspiro[4.5]decan-4-yl)quinoline-4-carboxamide]	> 75
O=C(N[C@@H]1CCO[C@]12O[C@H](CO)[C@H](O)[C@H](n1cc(-c3cc(F)c(F)c(F)c3)nn1)[C@H]2OCc1nn[nH]n1)c1ccc(F)c2ccccc12 [Compound A210, N-((4R,5S,7R,8R,9S,10R)-10-((2H-tetrazol-5-yl)methoxy)-8-hydroxy-7-(hydroxymethyl)-9-(4-(3,4,5-trifluorophenyl)-1H-1,2,3-triazol-1-yl)-1,6-dioxaspiro[4.5]decan-4-yl)-4-fluoro-1-naphthamide]	> 75
O=C(N[C@@H]1CCO[C@]12O[C@H](CO)[C@H](O)[C@H](n1cc(-c3cc(F)c(F)c(F)c3)nn1)[C@H]2O)c1cccc2ccc(Br)cc12 [Compound A211, 7-bromo-N-((4R,5S,7R,8R,9S,10R)-8,10-dihydroxy-7-(hydroxymethyl)-9-(4-(3,4,5-trifluorophenyl)-1H-1,2,3-triazol-1-yl)-1,6-dioxaspiro[4.5]decan-4-yl)-1-naphthamide]	> 75
O=C(N[C@@H]1CCO[C@]12O[C@H](CO)[C@H](O)[C@H](n1cc(-c3cc(F)c(F)c(F)c3)nn1)[C@H]2O)c1cccc2ncccc12 [Compound A212, N-((4R,5S,7R,8R,9S,10R)-8,10-dihydroxy-7-(hydroxymethyl)-9-(4-(3,4,5-trifluorophenyl)-1H-1,2,3-triazol-1-yl)-1,6-dioxaspiro[4.5]decan-4-yl)quinoline-5-carboxamide]	> 75
O=C(N[C@@H]1CCO[C@]12O[C@H](CO)[C@H](O)[C@H](n1cc(-c3cc(F)c(F)c(F)c3)nn1)[C@H]2O)c1ccc(Br)c2ncccc12 [Compound A213, 8-bromo-N-((4R,5S,7R,8R,9S,10R)-8,10-dihydroxy-7-(hydroxymethyl)-9-(4-(3,4,5-trifluorophenyl)-1H-1,2,3-triazol-1-yl)-1,6-dioxaspiro[4.5]decan-4-yl)quinoline-5-carboxamide]	50 to 75
CC1CO[C@@]2(C1)O[C@H](CO)[C@H](O)[C@H](n1cc(-c3cc(F)c(F)c(F)c3)nn1)[C@H]2O (stereo partly drawn) [Compound A214, (5S,7R,8R,9S,10R)-7-(hydroxymethyl)-3-methyl-9-(4-(3,4,5-trifluorophenyl)-1H-1,2,3-triazol-1-yl)-1,6-dioxaspiro[4.5]decane-8,10-diol]	50 to 75
O=C(Nc1cccc(Cl)c1)N[C@@H]1CCO[C@]12O[C@H](CO)[C@H](O)[C@H](n1cc(-c3cc(F)c(F)c(F)c3)nn1)[C@H]2O [Compound A215, 1-(3-chlorophenyl)-3-((4R,5S,7R,8R,9S,10R)-8,10-dihydroxy-7-(hydroxymethyl)-9-(4-(3,4,5-trifluorophenyl)-1H-1,2,3-triazol-1-yl)-1,6-dioxaspiro[4.5]decan-4-yl)urea]	> 75
O=C(N[C@@H]1CCO[C@]12O[C@H](CO)[C@H](O)[C@H](n1cc(-c3cc(F)c(F)c(F)c3)nn1)[C@H]2O)c1cccc2ncc(F)cc12 [Compound A216, N-((4R,5S,7R,8R,9S,10R)-8,10-dihydroxy-7-(hydroxymethyl)-9-(4-(3,4,5-trifluorophenyl)-1H-1,2,3-triazol-1-yl)-1,6-dioxaspiro[4.5]decan-4-yl)-3-fluoroquinoline-5-carboxamide]	> 75
O=C(N[C@@H]1CCO[C@]12O[C@H](CO)[C@H](O)[C@H](n1cc(-c3cc(F)c(F)c(F)c3)nn1)[C@H]2O)c1cccc2ncc(Cl)cc12 [Compound A217, 3-chloro-N-((4R,5S,7R,8R,9S,10R)-8,10-dihydroxy-7-(hydroxymethyl)-9-(4-(3,4,5-trifluorophenyl)-1H-1,2,3-triazol-1-yl)-1,6-dioxaspiro[4.5]decan-4-yl)quinoline-5-carboxamide]	> 75
Cc1oc2ccccc2c1C(=O)N[C@@H]1CCO[C@]12O[C@H](CO)[C@H](O)[C@H](n1cc(-c3cc(F)c(F)c(F)c3)nn1)[C@H]2O [Compound A218, N-((4R,5S,7R,8R,9S,10R)-8,10-dihydroxy-7-(hydroxymethyl)-9-(4-(3,4,5-trifluorophenyl)-1H-1,2,3-triazol-1-yl)-1,6-dioxaspiro[4.5]decan-4-yl)-2-methylbenzofuran-3-carboxamide]	> 75
O=C(N[C@@H]1CCO[C@]12O[C@H](CO)[C@H](O)[C@H](n1cc(-c3cc(F)c(F)c(F)c3)nn1)[C@H]2O)c1c[nH]c2ccc(Cl)cc12 [Compound A219, 5-chloro-N-((4R,5S,7R,8R,9S,10R)-8,10-dihydroxy-7-(hydroxymethyl)-9-(4-(3,4,5-trifluorophenyl)-1H-1,2,3-triazol-1-yl)-1,6-dioxaspiro[4.5]decan-4-yl)-1H-indole-3-carboxamide]	50 to 75
OC[C@H]1O[C@@]2(CCCN(c3cccc4ccccc34)C2)[C@H](O)[C@@H](n2cc(-c3cc(F)c(F)c(F)c3)nn2)[C@H]1O [Compound A220, (2R,3R,4S,5R,6R)-2-(hydroxymethyl)-8-(naphthalen-1-yl)-4-(4-(3,4,5-trifluorophenyl)-1H-1,2,3-triazol-1-yl)-1-oxa-8-azaspiro[5.5]undecane-3,5-diol]	< 25
OC[C@H]1O[C@@]2(CCCN(c3ccccc3Cl)C2)[C@H](O)[C@@H](n2cc(-c3cc(F)c(F)c(F)c3)nn2)[C@H]1O [Compound A222, (2R,3R,4S,5R,6R)-8-(2-chlorophenyl)-2-(hydroxymethyl)-4-(4-(3,4,5-trifluorophenyl)-1H-1,2,3-triazol-1-yl)-1-oxa-8-azaspiro[5.5]undecane-3,5-diol]	< 25
OC[C@H]1O[C@@]2(CCCN(c3cccc(Cl)c3)C2)[C@H](O)[C@@H](n2cc(-c3cc(F)c(F)c(F)c3)nn2)[C@H]1O [Compound A223, (2R,3R,4S,5R,6R)-8-(3-chlorophenyl)-2-(hydroxymethyl)-4-(4-(3,4,5-trifluorophenyl)-1H-1,2,3-triazol-1-yl)-1-oxa-8-azaspiro[5.5]undecane-3,5-diol]	< 25

Same assay, conditions: Table 3, found values; compound at 20 μM; 60 nM his-galectin-3, 15 nM biotin-ASF; read-out: % Inhibitory activity (at 20 μM)

SMILES	inhibition at 20 µM [%]
O=C(N[C@@H]1CCO[C@]12O[C@H](CO)[C@H](O)[C@H](n1cc(-c3cc(F)c(F)c(F)c3)nn1)[C@H]2OCc1nn[nH]n1)c1ccc(F)c2ccccc12 [Compound A210, N-((4R,5S,7R,8R,9S,10R)-10-((2H-tetrazol-5-yl)methoxy)-8-hydroxy-7-(hydroxymethyl)-9-(4-(3,4,5-trifluorophenyl)-1H-1,2,3-triazol-1-yl)-1,6-dioxaspiro[4.5]decan-4-yl)-4-fluoro-1-naphthamide]	90.6
